Structures are written as SMILES.

In data set [1] the target is T1, Myoglobin (Horse Skeleton) (Equus caballus, UniProt P68082).
T1 construct: Myoglobin (Horse Skeleton, Sigma) was made into a stock solution (10 mg/ml); purchased Sigma; host or cells: horse skeletal muscle ('Horse Skeleton' [sic])
Briefly: Inhibition of myoglobin thermal aggregation at 65° C. The settings on record: for Formation of fibrillation precipitates (PPT): one cell for all [X] of the excipient. It is filed as physicochemical. The method, then:
Myoglobin (Horse Skeleton, Sigma) was made into a stock solution (10 mg/ml) in sodium bicarbonate buffer (0.1 M, pH 9.0). This solution (0.5 ml) was then mixed with various excipient stock solutions (0.10 ml) to provide a series of test samples with the same final myoglobin concentration and varying excipient concentrations ([X]). Then the samples in sealed test tubes were inserted into wells of heating block that was pre-set at 65° C., and the incubation was continued over a period of time, to observe the formation of fibrillation precipitates (PPT).

Data set [2] addresses T2, BSA (Bos taurus, UniProt P02769).
T2 construct: BSA stock solution (35%, in water, 0.85% sodium chloride, from Sigma); purchased Sigma / Sigma Aldrich
Put plainly: Screening of excipients at pH 6.2 for capacity to deter BSA from forming a gel. It is filed as physicochemical, Bovine. The settings on record: for Results, 65° C., 60 minutes: BSA 175 mg/ml. The method, then:
Various excipients were tested for their capacity to deter BSA from forming a gel, using sucrose as a reference, in malonic acid buffer (25 mM), incubated at 65° C. for 60 minutes. The excipients used were sucrose, 4-formylbenzene-1,3-disulfonic acid, 4-formylbenzoic acid, phenylglyoxylic acid, glyoxylic acid. (Tables 2 through 6).

Data set [3] addresses T2, BSA. Put plainly: Inhibition of BSA thermal aggregation (gel/solid formation) at 65° C. over 60 min, phosphate buffer. It is filed as physicochemical, Bovine. The method, then: […] All samples were inserted into wells of heating block that was preset at 65° C.
Ten microliter of the above clear solutions were each diluted with 1.0 ml of phosphate buffer (pH 7.4), and a reference sample of BSA solutions of 2.5 mg/ml was prepared in the same buffer. Small aliquot of 0.10 ml of all the five diluted samples were analyzed on SEC HPLC (TSK gel G 3000 SW, 5 mm×300 mm), eluted with 50 mM sodium phosphate buffer (pH 7.4) containing 0.85% sodium chloride at flow rate of 1.0 ml/min monitored at 280 nm.

The mark [4] stands for this setting: malonate 25 mM pH 6.2, excipient 9.4 mg/ml.
The mark [5] stands for this setting: malonate 25 mM pH 6.2, excipient 18.8 mg/ml.
Setting [6] is: malonate 25 mM pH 6.2, excipient 37.5 mg/ml.

T2 sequence (P02769 25-607): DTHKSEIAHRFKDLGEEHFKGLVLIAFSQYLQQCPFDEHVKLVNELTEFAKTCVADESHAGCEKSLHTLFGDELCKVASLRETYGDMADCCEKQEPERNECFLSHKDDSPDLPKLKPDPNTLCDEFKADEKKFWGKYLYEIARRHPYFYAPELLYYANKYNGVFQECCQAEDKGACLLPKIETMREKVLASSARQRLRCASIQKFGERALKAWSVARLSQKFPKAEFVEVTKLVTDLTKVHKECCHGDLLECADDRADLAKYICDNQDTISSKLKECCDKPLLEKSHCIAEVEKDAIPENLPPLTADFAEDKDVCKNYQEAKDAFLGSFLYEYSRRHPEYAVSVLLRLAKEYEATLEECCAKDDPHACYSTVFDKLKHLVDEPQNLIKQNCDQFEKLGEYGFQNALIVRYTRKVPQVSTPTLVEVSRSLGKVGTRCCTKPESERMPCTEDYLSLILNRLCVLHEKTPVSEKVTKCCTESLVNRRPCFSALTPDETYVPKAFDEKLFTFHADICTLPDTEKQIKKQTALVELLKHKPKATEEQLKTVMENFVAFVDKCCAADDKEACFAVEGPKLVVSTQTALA
T1 sequence (P68082 whole entry): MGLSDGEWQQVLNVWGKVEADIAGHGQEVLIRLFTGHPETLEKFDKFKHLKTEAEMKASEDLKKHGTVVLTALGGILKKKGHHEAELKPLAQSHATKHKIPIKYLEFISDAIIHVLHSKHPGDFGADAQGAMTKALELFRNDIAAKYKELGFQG

With `O=Cc1cc(C(=O)O)ccc1O` [3-Formyl-4-hydroxylbenzoic Acid], the “Formation of fibrillation precipitates (PPT)” value (“Formation” below) in data set [1] (pH 9.0, 5 weeks) was “Precipitate”; in data set [1] (pH 9.0, 1 days), “Precipitate”; in data set [1] (pH 9.0, 2 days), “Precipitate”; in data set [1] (pH 9.0, 4 days), “Precipitate”.

With `O=Cc1ccc(C(=O)O)cc1` [4-Formylbenzoic acid], the “Results, 65° C., 60 minutes” value at BSA [2] (setting [4]), at BSA [2] (setting [5]) and at BSA [2] (setting [6]) was “Clear” each time.

For `OC[C@H]1O[C@@](CO)(O[C@H]2O[C@H](CO)[C@@H](O)[C@H](O)[C@H]2O)[C@@H](O)[C@@H]1O` [Sucrose, sucrose, reference compound], the “Results, 65° C., 60 minutes” value on BSA [2] (malonate 25 mM pH 6.2, excipient 75 mg/ml) was “Pale Gel”; at BSA [2] (malonate 25 mM pH 6.2, excipient 125 mg/ml), “Pale Gel”; at BSA [2] (malonate 25 mM pH 6.2, excipient 175 mg/ml), “Gel”. In addition, at BSA [2] (pH 6.2, 65° C., 60 minutes, all concentrations tested), the “Power to prevent BSA from turning into gel or solid (summary in words)” value was “does not have strong power to prevent BSA from turning into gel or solid”.

Turning to `O=Cc1ccc(S(=O)(=O)O)cc1S(=O)(=O)O` [4-Formyl-1,3-benzenedisulfonic Acid, 4-Formyl-1,3-benzenedisulfonic acid], the “Rank in deterring myoglobin from fibrillation (summary in words)” value in data set [1] (pH 9.0) is given as “best among this group”. Besides, the “Formation” value is “Clear” in data set [1] (pH 9.0, 5 weeks); “Clear” in data set [1] (pH 9.0, 1 days); “Clear” in data set [1] (pH 9.0, 2 days); “Clear” in data set [1] (pH 9.0, 4 days). In addition, the “Results, 65° C., 60 minutes” value is “Clear” at BSA [2] (malonate 25 mM pH 6.2, excipient 7.1 mg/ml); “Clear” on BSA [2] (malonate 25 mM pH 6.2, excipient 14.4 mg/ml); “Clear” at BSA [2] (malonate 25 mM pH 6.2, excipient 28.8 mg/ml); “Clear” at BSA [3] (BSA 262.5 mg/ml, phosphate 25 mM pH 7.4, excipient 12.5 mg/ml); “prevents BSA (262 mg/ml) from turning into gellified solid” at BSA [3] (BSA 262.5 mg/ml, phosphate 25 mM pH 7.4, excipient 12.5 mg/ml, listed as 4-Formyl-1,3-benzenedisulfonic acid); “Clear” on BSA [3] (BSA 262.5 mg/ml, phosphate 25 mM pH 7.4, excipient 25 mg/ml). The “Results, 65° C., 60 minutes” value was “Clear” on BSA [3] (BSA 262.5 mg/ml, phosphate 25 mM pH 7.4, excipient 50 mg/ml) and “remained as clear solution” on BSA [3] (repeated at pH 6.8, excipient 12.5 mg/ml).

For the molecule `O=C(O)C(=O)c1ccccc1` [Phenylglyoxylic Acid], the “Formation” value in data set [1] (pH 9.0, 5 weeks) was “Precipitate”; in data set [1] (pH 9.0, 1 days), “Precipitate (PPT)”; in data set [1] (pH 9.0, 2 days), “Precipitate”; in data set [1] (pH 9.0, 4 days), “Precipitate”. The “Results, 65° C., 60 minutes” value at BSA [2] (setting [4]), on BSA [2] (setting [5]) and at BSA [2] (setting [6]) was “Clear” each time.

For the origin of these results see patent publication US8642532B2, “Excipients for protein stabilization” (priority 2007, dated 2014).
